Results as given in article PMC11822212, “High-throughput screening identifies Aurora kinase B as a critical therapeutic target for Merkel cell carcinoma” (Nature Communications, 2025).
Like-named read-outs stand apart in the source and are kept apart here.

Columns and labels:
Experiment in all cases: qHTS cell viability (CellTiter-Glo, 72 h; primary and follow-up small molecule screen)
Type in all cases: cell-based, human
UISO cells (VN-MCC) = system: UISO cells (VN-MCC)
MKL-1 cells (VP-MCC) = system: MKL-1 cells (VP-MCC)
MKL-2 cells (VP-MCC) = system: MKL-2 cells (VP-MCC)
MCC13 cells (VN-MCC) = system: MCC13 cells (VN-MCC)
MCC26 cells (VN-MCC) = system: MCC26 cells (VN-MCC)
WAGA cells (VP-MCC) = system: WAGA cells (VP-MCC)
[1] = follow-up screen, UISO, replicate 1
[2] = follow-up screen, UISO, replicate 2
[3] = follow-up screen, UISO, replicate 3
[4] = follow-up screen, MKL-1, replicate 1
[5] = follow-up screen, MKL-1, replicate 2
[6] = follow-up screen, MKL-1, replicate 3
[7] = follow-up screen, MKL-2, replicate 1
[8] = follow-up screen, MKL-2, replicate 2
[9] = follow-up screen, MKL-2, replicate 3
[10] = follow-up screen, MCC13, replicate 1
[11] = follow-up screen, MCC13, replicate 2
[12] = follow-up screen, MCC13, replicate 3
[13] = follow-up screen, MCC26, replicate 1
[14] = follow-up screen, MCC26, replicate 2
[15] = follow-up screen, MCC26, replicate 3
[16] = follow-up screen, WAGA, replicate 1
[17] = follow-up screen, WAGA, replicate 2
[18] = follow-up screen, WAGA, replicate 3

| Structure (SMILES) | Area under the dose-response curve (AUC) UISO Replicate 1 (UISO cells (VN-MCC); [1]) | Area under the dose-response curve (AUC) UISO Replicate 2 (UISO cells (VN-MCC); [2]) | Area under the dose-response curve (AUC) UISO Replicate 3 (UISO cells (VN-MCC); [3]) | Area under the dose-response curve (AUC) MKL-1 Replicate 1 (MKL-1 cells (VP-MCC); [4]) | Area under the dose-response curve (AUC) MKL-1 Replicate 2 (MKL-1 cells (VP-MCC); [5]) | Area under the dose-response curve (AUC) MKL-1 Replicate 3 (MKL-1 cells (VP-MCC); [6]) | Area under the dose-response curve (AUC) MKL-2 Replicate 1 (MKL-2 cells (VP-MCC); [7]) | Area under the dose-response curve (AUC) MKL-2 Replicate 2 (MKL-2 cells (VP-MCC); [8]) | Area under the dose-response curve (AUC) MKL-2 Replicate 3 (MKL-2 cells (VP-MCC); [9]) | Area under the dose-response curve (AUC) MCC13 Replicate 1 (MCC13 cells (VN-MCC); [10]) | Area under the dose-response curve (AUC) MCC13 Replicate 2 (MCC13 cells (VN-MCC); [11]) | Area under the dose-response curve (AUC) MCC13 Replicate 3 (MCC13 cells (VN-MCC); [12]) | Area under the dose-response curve (AUC) MCC26 Replicate 1 (MCC26 cells (VN-MCC); [13]) | Area under the dose-response curve (AUC) MCC26 Replicate 2 (MCC26 cells (VN-MCC); [14]) | Area under the dose-response curve (AUC) MCC26 Replicate 3 (MCC26 cells (VN-MCC); [15]) | Area under the dose-response curve (AUC) WAGA Replicate 1 (WAGA cells (VP-MCC); [16]) | Area under the dose-response curve (AUC) WAGA Replicate 2 (WAGA cells (VP-MCC); [17]) | Area under the dose-response curve (AUC) WAGA Replicate 3 (WAGA cells (VP-MCC); [18]) | Area under the dose-response curve (AUC) UISO Replicate 1 (UISO cells (VN-MCC)) | Area under the dose-response curve (AUC) UISO Replicate 2 (UISO cells (VN-MCC)) | further results |
| --- | --- | --- | --- | --- | --- | --- | --- | --- | --- | --- | --- | --- | --- | --- | --- | --- | --- | --- | --- | --- | --- |
| CC[C@H]1CN2CCc3cc(OC)c(OC)cc3[C@@H]2C[C@@H]1C[C@H]1NCCc2cc(OC)c(OC)cc21 [Emetine] | 267.1 | 258.2 | 246.0 | 316.9 | 311.7 | 312.3 | 297.3 | 300.1 | 296.5 | 319.8 | 335.5 | 310.8 | 331.2 | 367.3 | 295.0 | 343.0 | 356.1 | 341.6 |  |  |  |
| CC[n+]1c(-c2ccccc2)c2cc(N)ccc2c2ccc(N)cc21 [Ethidium bromide] |  |  |  |  |  |  |  |  |  |  |  |  |  |  |  |  |  |  | 333.5 | 324.2 | Area under the dose-response curve (AUC) UISO Replicate 3 (UISO cells (VN-MCC)): 301.4; Area under the dose-response curve (AUC) MKL-1 Replicate 1 (MKL-1 cells (VP-MCC)): 280.1; Area under the dose-response curve (AUC) MKL-1 Replicate 2 (MKL-1 cells (VP-MCC)): 244.2; Area under the dose-response curve (AUC) MKL-1 Replicate 3 (MKL-1 cells (VP-MCC)): 288.2; Area under the dose-response curve (AUC) MKL-2 Replicate 1 (MKL-2 cells (VP-MCC)): 300.3; Area under the dose-response curve (AUC) MKL-2 Replicate 2 (MKL-2 cells (VP-MCC)): 311.5; Area under the dose-response curve (AUC) MKL-2 Replicate 3 (MKL-2 cells (VP-MCC)): 284.3; Area under the dose-response curve (AUC) MCC13 Replicate 1 (MCC13 cells (VN-MCC)): 459.3; Area under the dose-response curve (AUC) MCC13 Replicate 2 (MCC13 cells (VN-MCC)): 449.7; Area under the dose-response curve (AUC) MCC13 Replicate 3 (MCC13 cells (VN-MCC)): 444.5; Area under the dose-response curve (AUC) MCC26 Replicate 1 (MCC26 cells (VN-MCC)): 428.7; Area under the dose-response curve (AUC) MCC26 Replicate 2 (MCC26 cells (VN-MCC)): 414.7; Area under the dose-response curve (AUC) MCC26 Replicate 3 (MCC26 cells (VN-MCC)): 412.7; Area under the dose-response curve (AUC) WAGA Replicate 1 (WAGA cells (VP-MCC)): 318.2; Area under the dose-response curve (AUC) WAGA Replicate 2 (WAGA cells (VP-MCC)): 323.3; Area under the dose-response curve (AUC) WAGA Replicate 3 (WAGA cells (VP-MCC)): 317.1 |
| C[C@@H]1O[C@@H](O[C@H]2C[C@@H](O)[C@]3(CO)[C@H]4[C@H](O)C[C@]5(C)[C@@H](C6=CC(=O)OC6)CC[C@]5(O)[C@@H]4CC[C@]3(O)C2)[C@H](O)[C@H](O)[C@H]1O [G-Strophanthin] | 241.1 | 235.2 | 205.5 | 297.3 | 274.0 | 262.6 | 279.7 | 288.8 | 290.5 | 250.1 | 222.2 | 219.6 | 280.5 | 322.9 | 231.8 | 307.5 | 286.8 | 292.2 |  |  |  |
| O=c1c(O)c(-c2ccccc2)oc2cc(O)cc(O)c12 [GALANGIN] | 448.5 | 479.0 | 418.3 | 418.0 | 452.0 | 473.1 | 358.3 | 486.3 | 480.7 | 501.1 | 489.1 | 476.8 | 408.8 | 418.1 | 468.3 | 517.0 | 423.5 | 495.5 |  |  |  |
| CC(C)=CCC[C@]1(C)C=Cc2c(O)c3c(c(CC=C(C)C)c2O1)O[C@]12C(=C[C@@H]4C[C@H]1C(C)(C)O[C@@]2(C/C=C(/C)C(=O)O)C4=O)C3=O [GAMBOGIC ACID] | 286.6 | 299.4 | 341.5 | 308.8 | 334.5 | 328.9 | 279.3 | 285.4 | 317.0 | 387.5 | 370.7 | 367.8 | 329.0 | 325.1 | 343.3 | 304.1 | 265.2 | 369.1 |  |  |  |
| O=C(/C=C/c1ccc(/C=C/C(=O)Nc2ccc(C3=NCCN3)cc2)cc1)Nc1ccc(C2=NCCN2)cc1 [GW 4869] |  |  |  |  |  |  |  |  |  |  |  |  |  |  |  |  |  |  | 438.7 | 454.7 | Area under the dose-response curve (AUC) UISO Replicate 3 (UISO cells (VN-MCC)): 432.9; Area under the dose-response curve (AUC) MKL-1 Replicate 1 (MKL-1 cells (VP-MCC)): 478.1; Area under the dose-response curve (AUC) MKL-1 Replicate 2 (MKL-1 cells (VP-MCC)): 455.5; Area under the dose-response curve (AUC) MKL-1 Replicate 3 (MKL-1 cells (VP-MCC)): 501.6; Area under the dose-response curve (AUC) MKL-2 Replicate 1 (MKL-2 cells (VP-MCC)): 446.9; Area under the dose-response curve (AUC) MKL-2 Replicate 2 (MKL-2 cells (VP-MCC)): 473.7; Area under the dose-response curve (AUC) MKL-2 Replicate 3 (MKL-2 cells (VP-MCC)): 455.4; Area under the dose-response curve (AUC) MCC13 Replicate 1 (MCC13 cells (VN-MCC)): 485.4; Area under the dose-response curve (AUC) MCC13 Replicate 2 (MCC13 cells (VN-MCC)): 474.1; Area under the dose-response curve (AUC) MCC13 Replicate 3 (MCC13 cells (VN-MCC)): 483.0; Area under the dose-response curve (AUC) MCC26 Replicate 1 (MCC26 cells (VN-MCC)): 426.9; Area under the dose-response curve (AUC) MCC26 Replicate 2 (MCC26 cells (VN-MCC)): 422.1; Area under the dose-response curve (AUC) MCC26 Replicate 3 (MCC26 cells (VN-MCC)): 445.3; Area under the dose-response curve (AUC) WAGA Replicate 1 (WAGA cells (VP-MCC)): 473.9; Area under the dose-response curve (AUC) WAGA Replicate 2 (WAGA cells (VP-MCC)): 513.7; Area under the dose-response curve (AUC) WAGA Replicate 3 (WAGA cells (VP-MCC)): 487.4 |
| CCC(=O)NC[C@H](Cc1ccc(OCCc2nc(-c3ccccc3)oc2C)cc1)N/C(C)=C\C(=O)c1ccc(C(F)(F)F)cc1 [GW-6471] |  |  |  |  |  |  |  |  |  |  |  |  |  |  |  |  |  |  | 430.2 | 426.3 | Area under the dose-response curve (AUC) UISO Replicate 3 (UISO cells (VN-MCC)): 403.1; Area under the dose-response curve (AUC) MKL-1 Replicate 1 (MKL-1 cells (VP-MCC)): 475.3; Area under the dose-response curve (AUC) MKL-1 Replicate 2 (MKL-1 cells (VP-MCC)): 443.7; Area under the dose-response curve (AUC) MKL-1 Replicate 3 (MKL-1 cells (VP-MCC)): 500.6; Area under the dose-response curve (AUC) MKL-2 Replicate 1 (MKL-2 cells (VP-MCC)): 432.8; Area under the dose-response curve (AUC) MKL-2 Replicate 2 (MKL-2 cells (VP-MCC)): 489.1; Area under the dose-response curve (AUC) MKL-2 Replicate 3 (MKL-2 cells (VP-MCC)): 475.3; Area under the dose-response curve (AUC) MCC13 Replicate 1 (MCC13 cells (VN-MCC)): 508.4; Area under the dose-response curve (AUC) MCC13 Replicate 2 (MCC13 cells (VN-MCC)): 489.8; Area under the dose-response curve (AUC) MCC13 Replicate 3 (MCC13 cells (VN-MCC)): 459.0; Area under the dose-response curve (AUC) MCC26 Replicate 1 (MCC26 cells (VN-MCC)): 466.5; Area under the dose-response curve (AUC) MCC26 Replicate 2 (MCC26 cells (VN-MCC)): 438.7; Area under the dose-response curve (AUC) MCC26 Replicate 3 (MCC26 cells (VN-MCC)): 475.7; Area under the dose-response curve (AUC) WAGA Replicate 1 (WAGA cells (VP-MCC)): 517.9; Area under the dose-response curve (AUC) WAGA Replicate 2 (WAGA cells (VP-MCC)): 512.0; Area under the dose-response curve (AUC) WAGA Replicate 3 (WAGA cells (VP-MCC)): 484.1 |
